Here are results for one molecule from PMC5218480 (PLoS ONE, 2017).

The assay has as its system MV-4-11 cells. The experiment in a line: Gene expression microarray analysis (Affymetrix PrimeView) and GSEA. Format: cell-based, human. The arrangement: RFU PODN (11730768_x_at) / Fold change /veh PODN (11730768_x_at) / RFU LINC00158 (11744669_a_at) / Fold change /veh LINC00158 (11744669_a_at) / RFU DUSP10 (11751237_a_at) / Fold change /veh DUSP10 (11751237_a_at) / RFU ID3 (11757404_x_at) / Fold change /veh ID3 (11757404_x_at) / RFU PLEKHG5 (11737974_s_at) / Fold change /veh PLEKHG5 (11737974_s_at) / RFU LRRC4B (11730491_at) / Fold change /veh LRRC4B (11730491_at) / RFU GIMAP4 (11747438_a_at) / Fold change /veh GIMAP4 (11747438_a_at) / RFU KRT8 (11758183_x_at) / Fold change /veh KRT8 (11758183_x_at) / RFU CNN1 (11734310_a_at) / Fold change /veh CNN1 (11734310_a_at) / RFU VPS37D (11726825_at) / Fold change /veh VPS37D (11726825_at) / RFU C10orf10 (11716522_x_at) / Fold change /veh C10orf10 (11716522_x_at) / RFU KIR2DL2 /// KIR2DL4 /// KIR2DL5A /// KIR2DL5B /// KIR2DS1 /// KIR2DS2 /// KIR2DS3 /// KIR2DS4 /// KIR3DL3 /// KIR3DL3 /// KIR3DS1 (11738374_at) / Fold change /veh KIR2DL2 /// KIR2DL4 /// KIR2DL5A /// KIR2DL5B /// KIR2DS1 /// KIR2DS2 /// KIR2DS3 /// KIR2DS4 /// KIR3DL3 /// KIR3DL3 /// KIR3DS1 (11738374_at) / RFU C1QL1 (11718748_at) / Fold change /veh C1QL1 (11718748_at) / RFU TMPRSS4 (11747572_a_at) / Fold change /veh TMPRSS4 (11747572_a_at) / RFU HAMP (11756126_x_at) / Fold change /veh HAMP (11756126_x_at) / RFU RNFT2 (11725882_a_at) / Fold change /veh RNFT2 (11725882_a_at) / RFU NR4A2 (11747474_a_at) / Fold change /veh NR4A2 (11747474_a_at) / RFU ABCC12 (11746883_a_at) / Fold change /veh ABCC12 (11746883_a_at) / RFU TMEM136 (11760407_x_at) / Fold change /veh TMEM136 (11760407_x_at) / RFU CLDN22 /// WWC2 (11732394_at) / Fold change /veh CLDN22 /// WWC2 (11732394_at) / RFU HLA-DPB1 (11760878_x_at) / Fold change /veh HLA-DPB1 (11760878_x_at) / RFU SPINT1 (11716480_a_at) / Fold change /veh SPINT1 (11716480_a_at) / RFU GAP43 (11754022_s_at) / Fold change /veh GAP43 (11754022_s_at) / RFU A4GNT (11735810_at) / Fold change /veh A4GNT (11735810_at) / RFU PRB3 (11715151_x_at) / Fold change /veh PRB3 (11715151_x_at) / RFU TUBB4B (11761932_at) / Fold change /veh TUBB4B (11761932_at) / RFU CAPN14 (11732068_a_at) / Fold change /veh CAPN14 (11732068_a_at) / RFU TMCC2 (11721928_a_at) / Fold change /veh TMCC2 (11721928_a_at) / RFU IRGQ (11745062_a_at) / Fold change /veh IRGQ (11745062_a_at) / RFU FAM174B (11720279_a_at) / Fold change /veh FAM174B (11720279_a_at) / RFU TMPRSS4 (11748680_a_at) / Fold change /veh TMPRSS4 (11748680_a_at) / RFU FAM212B (11763350_a_at) / Fold change /veh FAM212B (11763350_a_at) / RFU PLEKHG5 (11743358_a_at) / Fold change /veh PLEKHG5 (11743358_a_at) / RFU ZSCAN30 (11745921_a_at) / Fold change /veh ZSCAN30 (11745921_a_at) / RFU CMKLR1 (11741424_a_at) / Fold change /veh CMKLR1 (11741424_a_at) / RFU LOC101060620 /// MAPK8IP1 (11723275_at) / Fold change /veh LOC101060620 /// MAPK8IP1 (11723275_at) / RFU SPTSSB (11747773_x_at) / Fold change /veh SPTSSB (11747773_x_at) / RFU PRSS12 (11739890_at) / Fold change /veh PRSS12 (11739890_at) / RFU BIN1 (11741810_x_at) / Fold change /veh BIN1 (11741810_x_at) / RFU WNT11 (11732464_a_at) / Fold change /veh WNT11 (11732464_a_at) / RFU C10orf10 (11716521_a_at) / Fold change /veh C10orf10 (11716521_a_at) / RFU C5orf56 (11738089_at) / Fold change /veh C5orf56 (11738089_at) / RFU CYB561 (11721691_x_at) / Fold change /veh CYB561 (11721691_x_at) / RFU ANKRD19P (11752326_a_at) / Fold change /veh ANKRD19P (11752326_a_at) / RFU OR2T12 /// OR2T33 /// OR2T8 (11738714_s_at) / Fold change /veh OR2T12 /// OR2T33 /// OR2T8 (11738714_s_at) / RFU VCAN (11748164_a_at) / Fold change /veh VCAN (11748164_a_at) / RFU JSRP1 (11732532_at) / Fold change /veh JSRP1 (11732532_at) / RFU KRTAP10-11 (11738290_x_at) / Fold change /veh KRTAP10-11 (11738290_x_at) / RFU MYO3A (11730013_a_at) / Fold change /veh MYO3A (11730013_a_at) / RFU EBF3 (11725865_a_at) / Fold change /veh EBF3 (11725865_a_at) / RFU CAMK2N1 (11719241_x_at) / Fold change /veh CAMK2N1 (11719241_x_at) / RFU C5orf56 (11738088_a_at) / Fold change /veh C5orf56 (11738088_a_at) / RFU OLFML3 (11715873_a_at) / Fold change /veh OLFML3 (11715873_a_at) / RFU LOC100653217 /// NTM (11731650_a_at) / Fold change /veh LOC100653217 /// NTM (11731650_a_at) / RFU MAPK11 (11762145_a_at) / Fold change /veh MAPK11 (11762145_a_at) / RFU FIZ1 (11724087_x_at) / Fold change /veh FIZ1 (11724087_x_at) / RFU OASL (11726364_x_at) / Fold change /veh OASL (11726364_x_at) / RFU SOX15 (11748057_x_at) / Fold change /veh SOX15 (11748057_x_at) / RFU CD79A (11719716_a_at) / Fold change /veh CD79A (11719716_a_at) / RFU HIST1H1D (11736915_at) / Fold change /veh HIST1H1D (11736915_at) / RFU CASKIN2 (11723855_a_at) / Fold change /veh CASKIN2 (11723855_a_at) / RFU LOC730098 (11760151_x_at) / Fold change /veh LOC730098 (11760151_x_at) / RFU OR4N2 (11742367_at) / Fold change /veh OR4N2 (11742367_at) / RFU PRRT2 (11749266_a_at) / Fold change /veh PRRT2 (11749266_a_at) / RFU SNX32 (11753110_a_at) / Fold change /veh SNX32 (11753110_a_at) / RFU CDHR5 (11726645_a_at) / Fold change /veh CDHR5 (11726645_a_at) / RFU RCAN1 (11760418_a_at) / Fold change /veh RCAN1 (11760418_a_at) / RFU FAM167A (11723789_a_at) / Fold change /veh FAM167A (11723789_a_at) / RFU FAM26E (11764081_at) / Fold change /veh FAM26E (11764081_at) / RFU ISYNA1 (11749810_s_at) / Fold change /veh ISYNA1 (11749810_s_at) / RFU ACY1 (11761880_at) / Fold change /veh ACY1 (11761880_at) / RFU 11764098_at / Fold change /veh 11764098_at / RFU SAMD14 (11745864_x_at) / Fold change /veh SAMD14 (11745864_x_at) / RFU NPB (11741838_a_at) / Fold change /veh NPB (11741838_a_at) / RFU TMPRSS6 (11731388_a_at) / Fold change /veh TMPRSS6 (11731388_a_at) / RFU KRTAP10-2 (11738614_at) / Fold change /veh KRTAP10-2 (11738614_at) / RFU ARHGAP8 /// PRR5-ARHGAP8 (11727945_x_at) / Fold change /veh ARHGAP8 /// PRR5-ARHGAP8 (11727945_x_at) / RFU KRTAP5-7 /// NADSYN1 (11734609_at) / Fold change /veh KRTAP5-7 /// NADSYN1 (11734609_at) / RFU RASL12 (11751679_a_at) / Fold change /veh RASL12 (11751679_a_at) / RFU CDKN2B (11736163_a_at) / Fold change /veh CDKN2B (11736163_a_at) / RFU PRF1 (11729649_at) / Fold change /veh PRF1 (11729649_at) / RFU, ZNF638 /// ZNF638-IT1 / Fold change vs veh, ZNF638 /// ZNF638-IT1 / RFU, PANK3 / Fold change vs veh, PANK3 / RFU, SH3YL1 / Fold change vs veh, SH3YL1 / RFU, ZEB2 / Fold change vs veh, ZEB2 / RFU, NRIP1 / Fold change vs veh, NRIP1 / RFU, PTTG1IP / Fold change vs veh, PTTG1IP / RFU, CAPN2 / Fold change vs veh, CAPN2 / RFU, MED14 / Fold change vs veh, MED14 / RFU, SNORA58 / Fold change vs veh, SNORA58 / RFU, C1orf63 / Fold change vs veh, C1orf63 / RFU, LRRFIP1 / Fold change vs veh, LRRFIP1 / RFU, NDUFAF7 / Fold change vs veh, NDUFAF7 / RFU, SLC12A2 / Fold change vs veh, SLC12A2 / RFU, IBTK / Fold change vs veh, IBTK / RFU, ESF1 / Fold change vs veh, ESF1 / Fold change vs veh, TMEM50B / RFU, TAOK1 / Fold change vs veh, TAOK1 / RFU, ACBD3 / Fold change vs veh, ACBD3 / RFU, TMA16 / Fold change vs veh, TMA16 / RFU, RWDD3 / Fold change vs veh, RWDD3 / RFU, BCAT1 / Fold change vs veh, BCAT1 / RFU, EDEM3 / Fold change vs veh, EDEM3 / RFU, TMEM33 / Fold change vs veh, TMEM33 / RFU, WDR75 / Fold change vs veh, WDR75 / RFU, AHCTF1 / Fold change vs veh, AHCTF1 / RFU, TFRC / Fold change vs veh, TFRC / RFU, ZDHHC17 / Fold change vs veh, ZDHHC17 / RFU, NOM1 / Fold change vs veh, NOM1 / RFU, ARL8B / Fold change vs veh, ARL8B / RFU, ZBTB11 / Fold change vs veh, ZBTB11 / RFU, TAMM41 / Fold change vs veh, TAMM41 / RFU, KIAA1704 /// LOC100996395 / Fold change vs veh, KIAA1704 /// LOC100996395 / RFU, ING1 / Fold change vs veh, ING1 / RFU, TRMT61B / Fold change vs veh, TRMT61B / RFU, FUBP3 / Fold change vs veh, FUBP3 / RFU, TP53 / Fold change vs veh, TP53 / RFU, TNKS2 / Fold change vs veh, TNKS2 / RFU, ZFP14 / Fold change vs veh, ZFP14 / RFU, ACTR2 / Fold change vs veh, ACTR2 / RFU, PPP3R1 / Fold change vs veh, PPP3R1 / RFU, PIK3R1 / Fold change vs veh, PIK3R1 / RFU, HNRNPA1 / Fold change vs veh, HNRNPA1 / RFU, RNF170 / Fold change vs veh, RNF170 / RFU, ZNF28 / Fold change vs veh, ZNF28 / RFU, RNGTT / Fold change vs veh, RNGTT / RFU, OGT / Fold change vs veh, OGT / RFU, BRD1 / Fold change vs veh, BRD1 / RFU, MARS / Fold change vs veh, MARS / RFU, ZNF655 / Fold change vs veh, ZNF655 / RFU, FAHD1 / Fold change vs veh, FAHD1 / RFU, BDP1 / Fold change vs veh, BDP1 / RFU, LRRCC1 / Fold change vs veh, LRRCC1 / RFU, ARID1A / Fold change vs veh, ARID1A / RFU, ZNF146 / Fold change vs veh, ZNF146 / RFU, ZNF330 / Fold change vs veh, ZNF330 / RFU, GPN3 / Fold change vs veh, GPN3 / RFU, C9orf123 / Fold change vs veh, C9orf123 / RFU, N4BP2L2 / Fold change vs veh, N4BP2L2 / RFU, ARFIP1 / Fold change vs veh, ARFIP1 / RFU, FAM179B / Fold change vs veh, FAM179B / RFU, BCL10 / Fold change vs veh, BCL10 / RFU, UHRF1BP1L / Fold change vs veh, UHRF1BP1L / RFU, BET1 / Fold change vs veh, BET1 / RFU, CNOT2 / Fold change vs veh, CNOT2 / RFU, ZNF268 / Fold change vs veh, ZNF268 / Fold change vs veh, ZNF507 / RFU, DGCR2 / Fold change vs veh, DGCR2 / RFU, WDSUB1 / Fold change vs veh, WDSUB1 / Fold change vs veh, HSP90B1 /// MIR3652 / RFU, ADSS / Fold change vs veh, ADSS / RFU, GK / Fold change vs veh, GK / RFU, ZNF148 / Fold change vs veh, ZNF148 / RFU, TAF9 / Fold change vs veh, TAF9 / RFU, SLC1A5 / Fold change vs veh, SLC1A5 / RFU, SLMO2 / Fold change vs veh, SLMO2 / RFU, ABCC4 / Fold change vs veh, ABCC4 / RFU, LOC101060439 /// RAP1B / Fold change vs veh, LOC101060439 /// RAP1B / RFU, RFX7 / Fold change vs veh, RFX7 / RFU, GTPBP10 / Fold change vs veh, GTPBP10 / RFU, CNEP1R1 / Fold change vs veh, CNEP1R1 / RFU, BIVM-ERCC5 /// ERCC5 / Fold change vs veh, BIVM-ERCC5 /// ERCC5 / RFU, ILF3 / Fold change vs veh, ILF3 / RFU 11762660_at / Fold change /veh 11762660_at / RFU VCAN (11757783_s_at) / Fold change /veh VCAN (11757783_s_at) / RFU DDX43 (11728927_at) / Fold change /veh DDX43 (11728927_at) / RFU KRT8 (11758188_x_at) / Fold change /veh KRT8 (11758188_x_at) / RFU NKD1 (11759106_at) / Fold change /veh NKD1 (11759106_at) / RFU SRD5A1 (11742802_a_at) / Fold change /veh SRD5A1 (11742802_a_at) / RFU TPSAB1 /// TPSB2 (11721975_s_at) / Fold change /veh TPSAB1 /// TPSB2 (11721975_s_at) / RFU GSTM3 (11746129_a_at) / Fold change /veh GSTM3 (11746129_a_at) / RFU IL23R (11737362_x_at) / Fold change /veh IL23R (11737362_x_at) / RFU TMEM51 (11727254_a_at) / Fold change /veh TMEM51 (11727254_a_at) / RFU PIWIL2 (11732686_x_at) / Fold change /veh PIWIL2 (11732686_x_at) / RFU ORM1 (11744905_x_at) / Fold change /veh ORM1 (11744905_x_at) / RFU CCDC152 (11743942_at) / Fold change /veh CCDC152 (11743942_at) / RFU ECM1 (11717891_a_at) / Fold change /veh ECM1 (11717891_a_at) / RFU IL23R (11748794_a_at) / Fold change /veh IL23R (11748794_a_at) / RFU TNFAIP8L3 (11732012_x_at) / Fold change /veh TNFAIP8L3 (11732012_x_at) / RFU MBOAT4 (11741988_at) / Fold change /veh MBOAT4 (11741988_at) / RFU 11764193_at / Fold change /veh 11764193_at / RFU TMEM53 (11763286_at) / Fold change /veh TMEM53 (11763286_at) / RFU MAGEB2 (11727129_at) / Fold change /veh MAGEB2 (11727129_at) / RFU TMEM200A (11744735_a_at) / Fold change /veh TMEM200A (11744735_a_at) / RFU CCDC152 (11751479_a_at) / Fold change /veh CCDC152 (11751479_a_at) / RFU FAM211A (11726209_a_at) / Fold change /veh FAM211A (11726209_a_at) / RFU RGS16 (11746705_a_at) / Fold change /veh RGS16 (11746705_a_at) / RFU VCAN (11755009_s_at) / Fold change /veh VCAN (11755009_s_at) / RFU RHOB (11743442_s_at) / Fold change /veh RHOB (11743442_s_at) / RFU RGS16 (11720943_a_at) / Fold change /veh RGS16 (11720943_a_at) / RFU RGS16 (11720944_at) / Fold change /veh RGS16 (11720944_at) / RFU, VPS4B / Fold change vs veh, VPS4B / RFU, CREB1 / Fold change vs veh, CREB1 / RFU, DNAJC13 / Fold change vs veh, DNAJC13 / RFU, GNAQ / Fold change vs veh, GNAQ / RFU, CDK5R1 / Fold change vs veh, CDK5R1 / RFU, ZRANB3 / Fold change vs veh, ZRANB3 / RFU, CUL4A / Fold change vs veh, CUL4A / RFU, CCNY / Fold change vs veh, CCNY / RFU, UFL1 / Fold change vs veh, UFL1 / RFU, COG3 / Fold change vs veh, COG3 / RFU, DIAPH2 / Fold change vs veh, DIAPH2 / RFU, SKA2 / Fold change vs veh, SKA2 / RFU, AFF3 / Fold change vs veh, AFF3 / RFU, LMF1 / Fold change vs veh, LMF1 / RFU, IPO11 / Fold change vs veh, IPO11 / RFU, DFFB / Fold change vs veh, DFFB / RFU, FOXP1 / Fold change vs veh, FOXP1 / RFU, CARD8 / Fold change vs veh, CARD8 / RFU, STRN3 / Fold change vs veh, STRN3 / RFU, ADK / Fold change vs veh, ADK / RFU, RASSF2 / Fold change vs veh, RASSF2 / RFU, WIPF1 / Fold change vs veh, WIPF1 / RFU, LARP1B / Fold change vs veh, LARP1B / RFU, RASA1 / Fold change vs veh, RASA1 / RFU, RB1 / Fold change vs veh, RB1 / RFU, PPFIA1 / Fold change vs veh, PPFIA1 / RFU, MAT2A / Fold change vs veh, MAT2A / RFU, CCT5 / Fold change vs veh, CCT5 / RFU, WDR92 / Fold change vs veh, WDR92 / RFU, CUX1 / Fold change vs veh, CUX1 / RFU, TTC7A / Fold change vs veh, TTC7A / RFU, TMEM135 / Fold change vs veh, TMEM135 / RFU, DEPTOR / Fold change vs veh, DEPTOR / RFU, CPM / Fold change vs veh, CPM / RFU, DNAJB6 / Fold change vs veh, DNAJB6 / RFU, CACNA2D3 / Fold change vs veh, CACNA2D3 / RFU, DTX4 / Fold change vs veh, DTX4 / RFU, TFCP2 / Fold change vs veh, TFCP2 / RFU, GMCL1 /// GMCL1P1 / Fold change vs veh, GMCL1 /// GMCL1P1 / RFU, AEBP2 / Fold change vs veh, AEBP2 / RFU, SNHG1 /// SNORD22 /// SNORD25 /// SNORD26 /// SNORD27 /// SNORD28 /// SNORD29 /// SNORD31 / Fold change vs veh, SNHG1 /// SNORD22 /// SNORD25 /// SNORD26 /// SNORD27 /// SNORD28 /// SNORD29 /// SNORD31 / Fold change (Aza/veh), C12orf56 (ProbeSet 11735607_a_at) / Fold change (ACY-1035/veh), C12orf56 (ProbeSet 11735607_a_at) / Fold change (Aza/veh), FGFR1OP (ProbeSet 11751329_s_at) / Fold change (ACY-1035/veh), FGFR1OP (ProbeSet 11751329_s_at) / Fold change (Aza/veh), VPS36 (ProbeSet 11739960_a_at) / Fold change (ACY-1035/veh), VPS36 (ProbeSet 11739960_a_at) / RFU SYPL1 (11715823_x_at) / Fold change /veh SYPL1 (11715823_x_at) / RFU IGFBP7 (11715501_s_at) / Fold change /veh IGFBP7 (11715501_s_at) / RFU REEP3 (11722064_at) / Fold change /veh REEP3 (11722064_at) / RFU IGLL1 (11728026_x_at) / Fold change /veh IGLL1 (11728026_x_at): dose or concentration left out as unconfirmed. The following applies: MV-4-11 cells, 48 hours.

Consider `Nc1ncn([C@@H]2O[C@H](CO)[C@@H](O)[C@H]2O)c(=O)n1` [azacitidine], for which the “RFU DDX43 (11728927_at)” value was found to be 12.02 RFU.
